According to patent US20230292776A1, “GAS PHASE TREATMENT OF PRODUCE” (priority 2022, published 2023):

Columns and labels:
Botrytis cinerea (Bc) = assay: Antifungal activity of vapor against Botrytis cinerea (Bc) in grapes; assay type: in vivo; details: Example 12; vapor of 3 mL in a Petri dish for 72 hours
Method: Example 12. The antifungal activity of AITC and DADS vapor against Botrytis cinerea (Bc) in grapes was tested. All samples were wounded by making a 3 mm deep puncture in the skin. Samples were infected by dispensing 1000 Bc spores suspended in 10 μL of water in the wound. The test groups consisted of grapes that were: uninfected and untreated; infected and untreated; exposed to the vapor of 3 mL of AITC in a Petri dish for 72 hours; and exposed to the vapor of 3 mL of DADS in a Petri dish for 72 hours. FIG. 17 quantifies the infection results. […] Both AITC and DADS vapor were effective at controlling Bc mold. Treatment with AITC can potentially lead to changes in color or flavor of the grapes.

[1] = tested on: Colletotrichum gloeosporioides (Cg); assay: Antifungal activity against Colletotrichum gloeosporioides (Cg) in wounded, infected avocados; assay type: in vivo; details: for reduction of the incidence of Cg mold compared to the untreated test group: vapor of 3 mL in a Petri dish; for incidence of Cg mold: day 5
Method: Example 7. The antifungal activity of AITC and DADS vapor against Colletotrichum gloeosporioides (Cg) was tested in avocados. All test pieces were wounded by removing the stem and infected by dispensing 1000 Cg spores suspended in 10 μL of water into the wound. The test groups consisted of avocados that were: untreated and uninfected; untreated and infected; treated by dipping in a solution of 0.1 g/L of prochloraz; exposed to the vapor of 3 mL of AITC disposed in a Petri dish; and exposed to the vapor of 3 mL of DADS disposed in a Petri dish. FIG. 9 quantifies the infection results. AITC vapor reduced the incidence of Cg mold by 97% compared to the untreated test group and 70% compared to the prochloraz treated test group. DADS vapor reduced the incidence of Cg mold by 60% compared to the untreated test group.
Example 8. The antifungal activity of a range of DADS vapor exposure times was tested against Cg in avocados. All test pieces were wounded by removing the stem and infected by dispensing 1000 Cg spores suspended in 10 μL of water into the wound. The test groups consisted of avocados that were: infected and untreated; and exposed to the vapor of 3 mL of DADS in a Petri dish for 24 hours, 48 hours, and 72 hours. FIG. 10 quantifies the infection results. Test group exposed to DADS vapor at all exposure times reduced the incidence of Cg mold compared to the untreated test group. A 24 hour DADS exposure reduced the incidence of Cg mold by 8%. A 48 hour DADS exposure reduced the incidence of Cg mold by 25%. A 72 hour DADS exposure reduced the incidence of Cg mold by 57%.
Example 9. The antifungal activity of a range of AITC and carvacrol vapor exposure times was tested against Cg in avocados. To measure the effect of the various treatments on ripening, durometer shore was taken after 7 days of incubation at ambient temperature and high humidity. All samples were wounded by removing the stem and infected by dispensing 1000 Cg spores suspended in 10 μL of water in the wound. The test groups consisted of avocados that were: infected and left untreated on the benchtop; infected and left untreated under a fume hood; exposed to the vapor of 3 mL of AITC in a Petri dish for 24 hours, 48 hours, and 72 hours; and exposed to the vapor of 3 mL of carvacrol in a Petri dish for 72 hours. FIG. 11 quantifies the infection results. […] All exposure times to AITC vapor reduced the incidence of Cg mold compared to the untreated samples. A 24 hour AITC exposure reduced the incidence of Cg mold by 90%. A 48 hour AITC exposure reduced the incidence of Cg mold by 97%. A 72 hour AITC exposure reduced the incidence of Cg mold by 83%.
Example 10. The antifungal activity of a range of AITC vapor exposure times were tested against Cg in avocados. To measure the effect of the various treatments on ripening, durometer shore was taken after 6 days of incubation at ambient temperature and high humidity. All samples were wounded by removing the stem and infected by dispensing 1000 Cg spores suspended in 10 μL of water in each wound. The test groups consisted of avocados that were: infected and left untreated on the benchtop; infected and left untreated in a fume hood; exposed to the vapor of 3 mL of AITC in a Petri dish for 24 hours, 48 hours, and 72 hours. FIG. 13 quantifies the infection results. […] All exposure times to AITC vapor reduced the incidence of Cg mold compared to the untreated samples.
Example 21. The antifungal activity of avocados exposed to AITC vapor and prochloraz was tested against Cg in avocados. To measure the effect of the various treatments on ripening, durometer shore was taken after 5 days of incubation at ambient temperature (about 20° C. to about 25° C.) and high humidity (about 88% relative humidity to about 93% relative humidity). All samples were wounded by removing the stem and infected by dispensing 1000 Cg spores suspended in 10 μL of water in the wound. […]

Row | SMILES | Bc mold in grapes (Botrytis cinerea (Bc)) | reduction of the incidence of Cg mold compared to the untreated test group ([1]; Example 7, avocados) | reduction of the incidence of Cg mold ([1]; Example 8, avocados, vapor of 3 mL, 24 hour exposure) | reduction of the incidence of Cg mold ([1]; Example 8, avocados, vapor of 3 mL, 48 hour exposure) | reduction of the incidence of Cg mold ([1]; Example 8, avocados, vapor of 3 mL, 72 hour exposure) | reduction of the incidence of Cg mold compared to the prochloraz treated test group ([1]; Example 7, avocados, vapor of 3 mL, prochloraz 0.1 g/L dip) | reduction of the incidence of Cg mold ([1]; Example 9, avocados, vapor of 3 mL, 24 hour exposure) | reduction of the incidence of Cg mold ([1]; Example 9, avocados, vapor of 3 mL, 48 hour exposure) | reduction of the incidence of Cg mold ([1]; Example 9, avocados, vapor of 3 mL, 72 hour exposure) | reduction of the incidence of Cg mold ([1]; Example 10, avocados, vapor of 3 mL, 24 hour exposure) | reduction of the incidence of Cg mold ([1]; Example 10, avocados, vapor of 3 mL, 48 hour exposure) | reduction of the incidence of Cg mold ([1]; Example 10, avocados, vapor of 3 mL, 72 hour exposure) | incidence of Cg mold ([1]; Example 21, 125 μL, 30 minutes) | reduction of the incidence of Cg mold ([1]; Example 21, printed as 24 hour exposure) | incidence of Cg mold ([1]; Example 22, AITC vapor 30 minutes)
1 | C=CCSSCC=C [DADS, diallyl disulfide] | substantially eliminated Bc mold | 60% | 8% | 25% | 57% |  |  |  |  |  |  |  |  |  | 
2 | C=CCN=C=S [AITC, allyl isothiocyanate] | substantially eliminated Bc mold | 97% |  |  |  | 70% | 90% | 97% | 83% | 81.5% | 93.5% | 86.5% | reduced the incidence of Cg mold compared to the untreated samples and the prochloraz treated sample | 90% | reduced the incidence of Cg mold compared to the untreated samples, the samples treated with coating agent, and the prochloraz treated sample
